Reference: patent US8211928B2, “Hepatitis C virus inhibitors” (Bristol-Myers Squibb Company, priority 2009, dated 2012)

test system: HCV 1b genotype; test: HCV replicon assay, 1b genotype; format: cell-based; conditions: Hepatitis C virus; HCV 1b genotype replicon; activity ranges; read-out: 1b EC50 in Range
Experimental: An HCV Replion assay was utilized in the present disclosure, and was prepared, conducted and validated as described in commonly owned PCT/US2006/022197 and in O'Boyle et. al. Antimierob Agents Chemother. 2005 April; 49(4):1346-53. Assay methods incorporating luciferase reporters have also been used as described (Apath.com).
HCV-neo replicon cells and HCV replicon cells containing mutations in the NS5A region were used to test the currently described family of compounds. The compounds were determined to have more than 10-fold less inhibitory activity on cells containing mutations than wild-type cells. Thus, the compounds of the present disclosure can be effective in inhibiting the function of the HCV NS5A protein and are understood to be as effective in combinations as previously described in application PCT/US2006/022197 and commonly owned WO/04014852. Further, the compounds of the present disclosure can be effective against the HCV 1b genotype. It should also be understood that the compounds of the present disclosure can inhibit multiple genotypes of HCV. […] In one embodiment, compounds of the present disclosure are inhibitory versus 1a, 1b, 2a, 2b, 3a, 4a, and 5a genotypes. Activity ranges are as follows: A=>100 nM; B=1-100 nM; C=101-999 pM; and D=1-100 pM.

Question: For `COC(=O)N[C@H](C(=O)N1CCC[C@H]1C(=O)Nc1noc2ccc(-c3ccc(-c4cnc([C@@H]5CCCN5C(=O)[C@@H](NC(=O)OC)[C@@H](C)OC)[nH]4)cc3)cc12)[C@@H](C)OC` [Example 14], which EC50 is on record?
Answer: The EC50 was 1 to 100 nM.

Question: How did the EC50 turn out when `COC(=O)N[C@H](C(=O)N1CCC[C@H]1C(=O)Nc1n[nH]c2ccc(-c3ccc(-c4cnc([C@@H]5CCCN5C(=O)[C@@H](NC(=O)OC)C(C)C)[nH]4)cc3)cc12)C(C)C` [Example 31] was run?
Answer: Its EC50 is > 100 nM.

Question: With `COC(=O)N[C@H](C(=O)N1CCC[C@H]1C(=O)Nc1noc2cc(-c3ccc(-c4cnc([C@@H]5CCCN5C(=O)[C@@H](NC(=O)OC)C(C)C)[nH]4)cc3)ccc12)C(C)C` [Example 5] as the compound, how does the EC50 read?
Answer: Its EC50 is 0.101 to 0.999 nM.

Question: With `CN(C)[C@@H](C(=O)N1CCC[C@H]1C(=O)Nc1noc2ccc(-c3ccc(-c4cnc([C@@H]5CCCN5C(=O)[C@@H](c5ccccc5)N(C)C)[nH]4)cc3)cc12)c1ccccc1` [Example 17] as the compound, how does the EC50 read?
Answer: Its EC50 is 1 to 100 nM.

Question: Which EC50 does the source give for `COC(=O)N[C@@H](C(=O)N1CCC[C@H]1C(=O)Nc1noc2cc(-c3ccc(-c4cnc([C@@H]5CCCN5C(=O)[C@H](NC(=O)OC)C(C)C)[nH]4)cc3)ccc12)C(C)C` [Example 7] here?
Answer: The EC50 was > 100 nM.

Question: `COC(=O)N[C@@H](C(=O)N1CCC[C@H]1C(=O)Nc1n[nH]c2ccc(-c3ccc(-c4cnc([C@@H]5CCCN5C(=O)[C@H](NC(=O)OC)c5ccccc5)[nH]4)cc3)cc12)c1ccccc1` [Example 34] was tested. Which EC50 did it give?
Answer: Its EC50 is 1 to 100 nM.

Question: How did the EC50 turn out when `COC(=O)N[C@@H](C(=O)N1CCC[C@H]1C(=O)Nc1noc2ccc(-c3ccc(-c4cnc([C@@H]5CCCN5C(=O)[C@H](NC(=O)OC)C(C)C)[nH]4)cc3)cc12)C(C)C` [Example 16] was run?
Answer: Its EC50 is > 100 nM.

Question: With `COC(=O)N[C@H](C(=O)N1CCC[C@H]1C(=O)Nc1n[nH]c2cc(-c3ccc(-c4cnc([C@@H]5CCCN5C(=O)[C@@H](NC(=O)OC)[C@@H](C)OC)[nH]4)cc3)ccc12)[C@@H](C)OC` [Example 25] as the compound, how does the EC50 read?
Answer: Its EC50 is 1 to 100 nM.

Question: `COCC[C@H](NC(=O)OC)C(=O)N1CCC[C@H]1C(=O)Nc1noc2ccc(-c3ccc(-c4cnc([C@@H]5CCCN5C(=O)[C@H](CCOC)NC(=O)OC)[nH]4)cc3)cc12` [Example 15] was tested. Which EC50 did it give?
Answer: The EC50 was 1 to 100 nM.

Question: Which EC50 does the source give for `CCN(CC)[C@@H](C(=O)N1CCC[C@H]1C(=O)Nc1n[nH]c2cc(-c3ccc(-c4cnc([C@@H]5CCCN5C(=O)[C@@H](c5ccccc5)N(CC)CC)[nH]4)cc3)ccc12)c1ccccc1` [Example 23] here?
Answer: Its EC50 is 0.001 to 0.1 nM.

Question: How did the EC50 turn out when `COC(=O)N[C@@H](C)C(=O)N1CCC[C@H]1C(=O)Nc1n[nH]c2ccc(-c3ccc(-c4cnc([C@@H]5CCCN5C(=O)[C@H](C)NC(=O)OC)[nH]4)cc3)cc12` [Example 29] was run?
Answer: The EC50 was > 100 nM.

Question: How did the EC50 turn out when `CN(C)[C@@H](C(=O)N1CCC[C@H]1C(=O)Nc1noc2cc(-c3ccc(-c4cnc([C@@H]5CCCN5C(=O)[C@@H](c5ccccc5)N(C)C)[nH]4)cc3)ccc12)c1ccccc1` [Example 6] was run?
Answer: Its EC50 is 0.101 to 0.999 nM.

Question: With `COC(=O)N[C@H](C(=O)N1CCC[C@H]1C(=O)Nc1n[nH]c2ccc(-c3ccc(-c4cnc([C@@H]5CCCN5C(=O)[C@@H](NC(=O)OC)[C@@H](C)OC)[nH]4)cc3)cc12)[C@@H](C)OC` [Example 33] as the compound, how does the EC50 read?
Answer: Its EC50 is > 100 nM.

Question: For `COC(=O)N[C@@H](C)C(=O)N1CCC[C@H]1C(=O)Nc1n[nH]c2cc(-c3ccc(-c4cnc([C@@H]5CCCN5C(=O)[C@H](C)NC(=O)OC)[nH]4)cc3)ccc12` [Example 22, (S)-1-((S)-2-Methoxycarbonylaminopropanoyl)-N-(6-(4-(2-((S)-1-((S)-2-methoxycarbonylaminopropanoyl)pyrrolidin-2-yl)-1H-imidazol-5-yl)phenyl)-1H-indazol-3-yl)pyrrolidine-2-carboxamide], which EC50 is on record?
Answer: Its EC50 is 1 to 100 nM.

Question: How did the EC50 turn out when `COCC[C@H](NC(=O)OC)C(=O)N1CCC[C@H]1C(=O)Nc1n[nH]c2ccc(-c3ccc(-c4cnc([C@@H]5CCCN5C(=O)[C@H](CCOC)NC(=O)OC)[nH]4)cc3)cc12` [Example 32] was run?
Answer: The EC50 was 1 to 100 nM.

Question: With `COC(=O)N[C@@H](C)C(=O)N1CCC[C@H]1C(=O)Nc1noc2ccc(-c3ccc(-c4cnc([C@@H]5CCCN5C(=O)[C@H](C)NC(=O)OC)[nH]4)cc3)cc12` [Example 12] as the compound, how does the EC50 read?
Answer: Its EC50 is 1 to 100 nM.

Question: For `COC(=O)N[C@H](C(=O)N1CCC[C@H]1C(=O)Nc1noc2ccc(-c3ccc(-c4cnc([C@@H]5CCCN5C(=O)[C@@H](NC(=O)OC)C(C)C)[nH]4)cc3)cc12)C(C)C` [Example 13], which EC50 is on record?
Answer: The EC50 was 1 to 100 nM.

Question: Which EC50 does the source give for `COC(=O)N[C@H](C(=O)N1CCC[C@H]1C(=O)Nc1n[nH]c2cc(-c3ccc(-c4cnc([C@@H]5CCCN5C(=O)[C@@H](NC(=O)OC)C(C)C)[nH]4)cc3)ccc12)C(C)C` [Example 24] here?
Answer: The EC50 was 0.101 to 0.999 nM.

Question: How did the EC50 turn out when `COC(=O)N[C@H](C(=O)N1CCC[C@H]1C(=O)Nc1noc2cc(-c3ccc(-c4cnc([C@@H]5CCCN5C(=O)[C@@H](NC(=O)OC)[C@@H](C)OC)[nH]4)cc3)ccc12)[C@@H](C)OC` [Example 8] was run?
Answer: The EC50 was 0.101 to 0.999 nM.

Question: For `CN(C)[C@@H](C(=O)N1CCC[C@H]1C(=O)Nc1n[nH]c2ccc(-c3ccc(-c4cnc([C@@H]5CCCN5C(=O)[C@@H](c5ccccc5)N(C)C)[nH]4)cc3)cc12)c1ccccc1` [Example 30], which EC50 is on record?
Answer: The EC50 was 1 to 100 nM.

same assay, conditions: Hepatitis C virus; HCV 1b genotype replicon; read-out: 1b EC50

Question: How did the EC50 turn out when `CCN(CC)[C@@H](C(=O)N1CCC[C@H]1C(=O)Nc1n[nH]c2cc(-c3ccc(-c4cnc([C@@H]5CCCN5C(=O)[C@@H](c5ccccc5)N(CC)CC)[nH]4)cc3)ccc12)c1ccccc1` [Example 23] was run?
Answer: Its EC50 is 0.043 nM.

Question: With `COC(=O)N[C@H](C(=O)N1CCC[C@H]1C(=O)Nc1n[nH]c2ccc(-c3ccc(-c4cnc([C@@H]5CCCN5C(=O)[C@@H](NC(=O)OC)[C@@H](C)OC)[nH]4)cc3)cc12)[C@@H](C)OC` [Example 33] as the compound, how does the EC50 read?
Answer: Its EC50 is 1200 nM.

Question: How did the EC50 turn out when `COC(=O)N[C@H](C(=O)N1CCC[C@H]1C(=O)Nc1noc2ccc(-c3ccc(-c4cnc([C@@H]5CCCN5C(=O)[C@@H](NC(=O)OC)C(C)C)[nH]4)cc3)cc12)C(C)C` [Example 13] was run?
Answer: The EC50 was 30.1 nM.
